Laboratory results from US20130177627A1, “Growth inhibitory effects of nanoparticles containing triterpene glycosides or triterpenes” (priority 2011, published 2013).
Values after ≈ are worked out from the molar mass of the structure shown. Values joined by “and” are separate entries in the source; they are usually repeats but may differ in a detail not shown here. Equal entries are not always repeated. “Also recorded” adds a separate entry of the source. Where two headings read alike, the source gives them in different places.

Tests used:
293T(null) cells = assay: MTT growth inhibition assay on 293T(null) cells; assay type: cell-based; settings: Homo sapiens, HEK-293T, 96 h MTT, FIG. 10B
rat liver [1] = assay: Gene expression in rat liver after actein; assay type: in vivo; settings: gene expression analysis
MCF7 cells = assay: Calcium release, cells preloaded with Fura-2, MCF7; assay type: cell-based, human
Experimental: (§1) Methods: To reveal signaling pathways, human breast and colon cancer, as well as 293T(NK-kB), cells were treated with actein, alone or combined with specific inhibitors. Effects were measured using the MTT, luciferase, promoter and Western blot assays and histology. To assess effects on calcium release, cells were preloaded with the calcium sensitive dye Fura-2. To enhance bioavailability, actein was conjugated to nanoparticle liposomes.
(§2) To elucidate the primary targets of actein, the effect of actein on calcium release was assessed. Cells were preloaded with the calcium sensitive dye Fura-2, which binds to calcium ions inside the cell. […] The effect was dose dependent in that it was stronger at 10 μM than at 10 nM in MCF7 breast cancer cells (FIG. 7A, B). […] The increase in calcium level was more sustained at the higher dose of actein (10 μM)) versus 10 nM and it continued longer for MDA-MB-453 than for MCF7 breast cancer cells (FIG. 7C).

[2] = test system: MDA-MB-453 human breast cancer cells; assay: MTT growth inhibition assay and combination index on MDA-MB-453 cells
Experimental: MTT assay: the MTT (3-(4,5-dimethyl-2-thiazol)-2,5-diphenyl-2H tetrazolilum bromide) cell proliferation assay system (Roche Diagnostic, Mannheim, Germany) was used to determine the sensitivity of the various cell lines to agents. Cells were seeded at 1×10^4 cells/well in 96-well plates and allowed to attach for 24 h. The medium was replaced with fresh medium containing DMSO or compound. The cells were treated for 96 or 120 h, after which they were incubated with MTT reagents and the absorbance read at 650 and 575 nm.
The results of the MTT assay were analyzed for possible synergistic effects using the median effect principle.

HT29 cells = assay: Calcium release, cells preloaded with Fura-2, HT29; assay type: cell-based, human
Experimental: as §1, §2

[3] = test system: MCF7 human breast cancer cells; assay: MTT growth inhibition assay on MCF7 cells; assay type: cell-based
IKKβ protein = assay: Western blot analysis of IKKβ; assay type: cell-based; settings: 3 h, FIG. 10C
Experimental: Cells were treated for increasing times, in media containing serum, with approximately the IC50 and twice the IC50 concentration, measured at 48 h, of actein. Western blot analysis was performed as previously described (Einbond et al., 2004). The membrane was incubated with the primary antibody IKKβ (Santa Cruz Biotechnology; Santa Cruz, Calif.); β-actin was used as a loading control.

[4] = test system: NFκB transcription factor; assay: NF-kB luciferase assay in 293T cells; assay type: cell-based; settings: 293T(NF-κB) cells
Experimental: A luciferase reporter construct is integrated in 293T cells and is regulated by 6 copies of the NFκB response element. The assay to monitor the activity of NFκB transcription factor was performed as described in the manufacturer's instructions (Panomics, Freemont, Calif.).

rat liver [5] = settings: cited from earlier work
Na+/K+-ATPase = settings: Einbond et al., 2008, cited from earlier work
[6] = test system: breast cancer cell growth; settings: Einbond et al., 2008; cited from earlier work
[7] = test system: 293T(NF-κB) stably transformed cells; assay: MTT growth inhibition assay on 293T(NF-κB) cells; assay type: cell-based; settings: Homo sapiens, HEK-293T, 96 h MTT, FIG. 10B
[8] = test system: HT29 human colon cancer cells; assay: MTT growth inhibition assay on HT29 cells; assay type: cell-based
[9] = test system: NF-kB promoter activity, p-Erk, p-Akt, cyclin D1; settings: later times (24 h), Einbond et al., 2008; cited from earlier work
[10] = test system: MDA-MB-453 breast cancer cells; assay: Gene expression analysis in MDA-MB-453 cells; assay type: cell-based, human; settings: actein 20 μg/ml
Experimental: Gene expression analysis was performed as previously described in vitro (Einbond et al., 2007)
AffyLimma analysis: To identify individual alterations in gene expression induced by treatment, an unbiased informatics analysis was performed using the AffyLimmaGUI package in the open-source Bioconductor suite, as previously described [Einbond et al., 2007.]

MDA-MB-453 cells = assay: Calcium release, cells preloaded with Fura-2, MDA-MB-453; assay type: cell-based, human; settings: MDA-MB-453, FIG. 7C
Experimental: as §1, §2

[11] = Homo sapiens, MDA-MB-453, read-out: IC50, agent alone

Q: With `CC(=O)O[C@@H]1C[C@@]23C[C@@]24CC[C@H](O[C@@H]2OC[C@@H](O)[C@H](O)[C@H]2O)C(C)(C)[C@@H]4CC[C@H]3[C@]2(C)C[C@@H]3O[C@]4(C[C@@H](C)[C@@H]3[C@@]12C)O[C@H](O)[C@@]1(C)O[C@@H]41` [actein] as the molecule, how does the IC50 (293T(null) cells) read?
A: 75 µg/mL (≈ 111 µM)

Q: And the “expression of the inflammatory gene CXCR4 in rat liver tissue” value (rat liver [1])?
A: reduced the expression

Q: And the “calcium release (action potential, Fura-2)” value (MCF7 cells; MCF7, actein 10 nM and 10 μM, FIG. 7A, B)?
A: induced an increase in action potential indicating calcium release

Q: What about the “intracellular calcium (ion concentration) levels” value (MCF7 cells; MCF7, actein 100 nM or 100 μM, FIG. 4) of the same molecule?
A: significantly increases intracellular calcium

Q: And the “time course of the calcium effect” value (MCF7 cells; MCF7 breast cancer cells)?
A: immediate and transient

Q: And the IC50 ([2]; Homo sapiens, MDA-MB-453, 96 h, read-out: IC50, concentration that caused 50% inhibition of cell growth)?
A: ~8 µg/mL and ~12 µM

Q: What about the IC50 [2, 11] of the same molecule?
A: 25 µg/mL

Q: And the IC50 ([2]; Homo sapiens, MDA-MB-453, read-out: IC50, growth inhibition)?
A: 23 µg/mL

Q: And the “ability of actein to potentiate the effects of thapsigargin” value ([2]; MDA-MB-453, FIG. 8A, B)?
A: enhanced the effects of thapsigargin

Q: And the “calcium release (action potential, Fura-2)” value (HT29 cells)?
A: induced an increase in action potential indicating calcium release

Q: And the IC50 ([3]; MCF7, 96 h, read-out: IC50, concentration that caused 50% inhibition of cell growth)?
A: ~30 µM

Q: And the viability at 5 µg/mL ([3]; MCF7, actein 5 μg/ml alone or plus U0126 10 μM, read-out: percent viable cells)?
A: 79.2%

Q: And the IC50 ([3]; MCF7, actein alone or combined with MEK inhibitor U0126, FIG. 6B, read-out: IC50, growth inhibition)?
A: 20 µg/mL

Q: What about the “level of IKKβ protein” value (IKKβ protein) of the same molecule?
A: decreased the level of IKKβ protein in a dose dependent manner

Q: And the “effect on 293T cells stably transformed with the NF-κB plasmid (FIG. 10A NF-kB activity)” value [4]?
A: did not increase cell proliferation

Q: What about the “genes erythropoietin, CYP2C and ATP synthase in rat liver” value (rat liver [5]; actein 35.7 mg/kg for 6 h, rat liver (Einbond et al., 2009)) of the same molecule?
A: downregulated

Q: What about the “responses elicited in rat liver in vivo” value (rat liver [5]; rat liver) of the same molecule?
A: elicited stress and statin-associated responses

Q: And the “activity of the purified Na-K ATPase” value (Na+/K+-ATPase; 2007)?
A: inhibits the activity of the purified Na+/K+-ATPase; also recorded: inhibited the activity of the purified Na-K ATPase

Q: What about the “combination with digitoxin on Na/K ATPase activity” value (Na+/K+-ATPase) of the same molecule?
A: synergized with digitoxin

Q: And the “combination with digitoxin on breast cancer cell growth” value [6]?
A: synergized with digitoxin

Q: And the IC50 [7]?
A: 38 µg/mL (≈ 56.1 µM)

Q: What about the IC50 ([8]; Homo sapiens, HT-29, 96 h, read-out: IC50, concentration that caused 50% inhibition of cell growth) of the same molecule?
A: ~24 µg/mL and ~35 µM

Q: What about the viability at 10 µg/mL ([8]; Homo sapiens, HT-29, HT29, actein 10 μg/ml alone or plus U0126 10 μM, read-out: percent viable cells) of the same molecule?
A: 79.1%

Q: And the IC50 ([8]; Homo sapiens, HT-29, HT29, actein alone or combined with MEK inhibitor U0126, FIG. 6C, read-out: IC50, growth inhibition)?
A: 30 µg/mL

Q: What about the “level of NF-kB promoter activity, p-Erk, p-Akt and cyclin D1 protein” value [9] of the same molecule?
A: reduced

Q: And the “expression of the inflammatory pathway, cytokine-cytokine interaction” value ([10]; 6 h, up EPOR, down CXCR4, TRAF5, IL17RB)?
A: significantly modulated

Q: What about the “expression of the MAPK signaling pathway” value ([10]; gene (up) HSPA1A) of the same molecule?
A: significantly altered

Q: What about the “calcium release (action potential, Fura-2)” value (MDA-MB-453 cells) of the same molecule?
A: induced an increase in action potential indicating calcium release

Q: What does the source list for heparin [reference compound]?
A: effect of heparin on the growth inhibitory effects of actein ([8]; HT29 colon cancer cells): partially blocked; effect of heparin on actein-induced calcium release (MDA-MB-453 cells): completely blocked

Q: Which results are given for `C/C=C(/C)C(=O)O[C@H]1C(C)=C2[C@H]([C@@H]1OC(=O)CCCCCCC)[C@@](C)(OC(C)=O)C[C@H](OC(=O)CCC)[C@@]1(O)[C@H]2OC(=O)[C@@]1(C)O` [thapsigargin, reference compound]?
A: IC50 [2, 11]: 0.018 µg/mL; viability at 0.01 µg/mL ([2]; Homo sapiens, MDA-MB-453, read-out: percent viable cells): 76.3%
